In paper PMC7734625, “Stabilization Strategies for Linear Minigastrin Analogues: Further Improvements via the Inclusion of Proline into the Peptide Sequence” (Journal of Medicinal Chemistry, 2020):
Like-named read-outs stand apart in the source and are kept apart here. Blank lines part the entries; values can stand above or below the compound they belong to. Non-standard residues stand in square brackets, D forms with d. Residues, ends and D or L forms follow the SMILES beside them. *: point of attachment. DOTA = O=C(O)CN1CCN(CC(=O)O)CCN(CC(=O)*)CCN(CC(=O)O)CC1; 1Nal = N[C@@H](Cc1cccc2ccccc12)C(=O)O; NMeNle = CCCC[C@H](NC)C(=O)O

Experiment: biodistribution in A431-CCK2R/A431-mock xenografted BALB/c nude mice
Type: in vivo
Settings: female, athymic BALB/c nude, mouse, iv, total radioactivity; for tissue to tissue ratio at 4 h / tissue uptake at 4 h: 4 h p.i.; for tissue uptake at 12 h / tissue to tissue ratio at 12 h: 12 h p.i.
Description: Biodistribution studies evaluating the tumor uptake of the radiolabeled peptides were performed in 7- to 9-week-old female athymic BALB/c nude mice (Charles River, Sulzfeld, Germany). For the induction of tumor xenografts, 150 μL of DMEM containing 2 × 10^6 A431-CCK2R and A431-mock cells were injected subcutaneously in the right and left flank of each mouse, respectively. And 10–14 days after injection, tumors reached a medium weight of ∼0.25 g. The mice were divided into groups of four and injected intravenously via a lateral tail vein with 0.2 MBq of ^111In-labeled compound (0.02 nmol) and 0.7 and 1.5 MBq of the ^177Lu-labeled compound (0.02 and 0.15 nmol). At 4 and 12 h p.i., the mice were sacrificed and the tumors and other tissues (blood, lung, heart, muscle, spleen, intestine, liver, kidneys, stomach, and pancreas) were removed, weighed, and their radioactivity measured in the γ counter together with the rest of the body. Initial biodistribution studies were performed with the three ^177Lu-labeled CCK2R-targeting ligands at an injected peptide amount of 20 pmol for the time point of 4 h p.i. From these studies, two peptide analogues were selected to further characterize the biodistribution profile also at a later time point of 12 h p.i. and at a higher injected peptide amount of 150 pmol. Additional animal studies were performed for the ^111In-labeled conjugates. Percentage of injected activity per gram tissue (%IA/g), tumor-to-organ activity ratios, as well as whole body activity were calculated for each sample and statistical analysis using independent two-population t-test (significance level p < 0.05) was performed using Origin software. For the comparison of more than two groups, data were analyzed using one-way analysis of variance (ANOVA) Holm–Bonferroni-adjusted post hoc analysis (significance level p < 0.05) using Microsoft Excel 2010 software (Microsoft Excel 2010, Microsoft Corporation, WA).

[1] = A431-CCK2R xenograft tumor / blood, 20 pmol, 20 pmol, read-out: tumor-to-blood ratio
[2] = A431-CCK2R xenograft tumor / kidney, 20 pmol, 20 pmol, read-out: tumor-to-kidney ratio
[3] = A431-CCK2R xenograft tumor / liver, 20 pmol, 20 pmol, read-out: tumor-to-liver ratio
[4] = A431-CCK2R xenograft tumor / stomach, 20 pmol, 20 pmol, read-out: tumor-to-stomach ratio
[5] = A431-CCK2R xenograft tumor, 20 pmol, 20 pmol, read-out: tumor uptake in A431-CCK2R xenografts
[6] = A431-CCK2R xenograft tumor, 150 pmol, 150 pmol, read-out: tumor uptake in A431-CCK2R xenografts
[7] = A431-mock xenograft tumor, 20 pmol, 20 pmol, read-out: uptake in A431-mock xenografts
[8] = blood, 20 pmol, 20 pmol, read-out: uptake in blood
[9] = heart, 20 pmol, 20 pmol, read-out: uptake in heart
[10] = intestine, 20 pmol, 20 pmol, read-out: uptake in intestine
[11] = intestine, 150 pmol, 150 pmol, read-out: uptake in intestine
[12] = kidney, 20 pmol, 20 pmol, read-out: uptake in kidney
[13] = kidney, 150 pmol, 150 pmol, read-out: uptake in kidney
[14] = liver, 20 pmol, 20 pmol, read-out: uptake in liver
[15] = liver, 150 pmol, 150 pmol, read-out: uptake in liver
[16] = lung, 20 pmol, 20 pmol, read-out: uptake in lung
[17] = lung, 150 pmol, 150 pmol, read-out: uptake in lung
[18] = muscle, 20 pmol, 20 pmol, read-out: uptake in muscle
[19] = muscle, 150 pmol, 150 pmol, read-out: uptake in muscle
[20] = pancreas, 20 pmol, 20 pmol, read-out: uptake in pancreas
[21] = pancreas, 150 pmol, 150 pmol, read-out: uptake in pancreas
[22] = spleen, 20 pmol, 20 pmol, read-out: uptake in spleen
[23] = stomach, 20 pmol, 20 pmol, read-out: uptake in stomach
[24] = stomach, 150 pmol, 150 pmol, read-out: uptake in stomach
[25] = tumor/blood, 20 pmol, 20 pmol, read-out: tumor-to-blood ratio
[26] = tumor/blood, 150 pmol, 150 pmol, read-out: tumor-to-blood ratio
[27] = tumor/kidney, 20 pmol, 20 pmol, read-out: tumor-to-kidney ratio
[28] = tumor/kidney, 150 pmol, 150 pmol, read-out: tumor-to-kidney ratio
[29] = tumor/liver, 20 pmol, 20 pmol, read-out: tumor-to-liver ratio
[30] = tumor/liver, 150 pmol, 150 pmol, read-out: tumor-to-liver ratio
[31] = tumor/stomach, 20 pmol, 20 pmol, read-out: tumor-to-stomach ratio
[32] = tumor/stomach, 150 pmol, 150 pmol, read-out: tumor-to-stomach ratio

tissue to tissue ratio at 4 h [1]: 540 ± 103
tissue to tissue ratio at 4 h [2]: 10
tissue to tissue ratio at 4 h [3]: 83.3 ± 23
tissue to tissue ratio at 4 h [4]: 5
tissue uptake at 4 h [5]: 34.7 ± 9.4 %ID/g
tissue uptake at 12 h [5]: 23.4 ± 8.64 %ID/g
tissue uptake at 4 h [6]: 16.7 ± 1.48 %ID/g
tissue uptake at 4 h [7]: 0.32 ± 0.14 %ID/g
tissue uptake at 12 h [7]: 0.11 ± 0.02 %ID/g
tissue uptake at 4 h [8]: 0.07 ± 0.02 %ID/g
tissue uptake at 12 h [8]: 0.01 %ID/g
tissue uptake at 4 h [9]: 0.09 ± 0.01 %ID/g
tissue uptake at 12 h [9]: 0.05 ± 0.01 %ID/g
tissue uptake at 4 h [10]: 1.14 ± 0.51 %ID/g
tissue uptake at 12 h [10]: 0.24 ± 0.02 %ID/g
tissue uptake at 4 h [11]: 0.61 ± 0.13 %ID/g
tissue uptake at 4 h [12]: 3.97 ± 1.31 %ID/g
tissue uptake at 12 h [12]: 3.12 ± 1.05 %ID/g
tissue uptake at 4 h [13]: 4.04 ± 0.82 %ID/g
tissue uptake at 4 h [14]: 0.42 ± 0.06 %ID/g
tissue uptake at 12 h [14]: 0.32 ± 0.09 %ID/g
tissue uptake at 4 h [15]: 0.49 ± 0.12 %ID/g
tissue uptake at 4 h [16]: 0.14 ± 0.05 %ID/g
tissue uptake at 12 h [16]: 0.11 ± 0.07 %ID/g
tissue uptake at 4 h [17]: 0.15 ± 0.07 %ID/g
tissue uptake at 4 h [18]: 0.06 ± 0.05 %ID/g
tissue uptake at 12 h [18]: 0.02 ± 0.01 %ID/g
tissue uptake at 4 h [19]: 0.05 ± 0.03 %ID/g
tissue uptake at 4 h [20]: 2.09 ± 0.84 %ID/g
tissue uptake at 12 h [20]: 0.76 ± 0.13 %ID/g
tissue uptake at 4 h [21]: 0.35 ± 0.06 %ID/g
tissue uptake at 4 h [22]: 0.18 ± 0.04 %ID/g
tissue uptake at 12 h [22]: 0.13 ± 0.03 %ID/g
tissue uptake at 4 h [23]: 7.37 ± 2.26 %ID/g
tissue uptake at 12 h [23]: 4.18 ± 0.72 %ID/g
tissue uptake at 4 h [24]: 1.26 ± 0.5 %ID/g
tissue to tissue ratio at 12 h [25]: 2440 ± 1780
tissue to tissue ratio at 4 h [26]: 294 ± 137
tissue to tissue ratio at 12 h [27]: 8.14 ± 4.06
tissue to tissue ratio at 4 h [28]: 4.25 ± 0.88
tissue to tissue ratio at 12 h [29]: 76.8 ± 34.4
tissue to tissue ratio at 4 h [30]: 35.9 ± 9.9
tissue to tissue ratio at 12 h [31]: 5.54 ± 1.44
tissue to tissue ratio at 4 h [32]: 14.9 ± 5.6
SMILES: CCCC[C@@H](C(=O)N[C@@H](CC(=O)O)C(=O)N[C@@H](Cc1cccc2ccccc12)C(N)=O)N(C)C(=O)[C@H](Cc1c[nH]c2ccccc12)NC(=O)CNC(=O)[C@H](Cc1ccc(O)cc1)NC(=O)[C@@H]1CCCN1C(=O)[C@@H](CCC(=O)O)NC(=O)CN1CCN(CC(=O)O)CCN(CC(=O)O)CCN(CC(=O)O)CC1 [[^177Lu]Lu-1, metal not drawn] ({DOTA}-[dE]PYGW[NMeNle]D[1Nal]-NH2)

tissue to tissue ratio at 4 h [1]: 429 ± 134
tissue to tissue ratio at 4 h [2]: 6.51 ± 2.29
tissue to tissue ratio at 4 h [3]: 80.6 ± 26.5
tissue to tissue ratio at 4 h [4]: 7.31 ± 1.84
tissue uptake at 4 h [5]: 33.2 ± 6.34 %ID/g
tissue uptake at 12 h [5]: 25 ± 4.92 %ID/g
tissue uptake at 4 h [6]: 17.2 ± 5.98 %ID/g
tissue uptake at 4 h [7]: 0.25 ± 0.06 %ID/g
tissue uptake at 12 h [7]: 0.15 ± 0.03 %ID/g
tissue uptake at 4 h (A431-mock xenograft tumor, 150 pmol, 150 pmol, read-out: uptake in A431-mock xenografts): 0.33 ± 0.05 %ID/g
tissue uptake at 4 h [8]: 0.08 ± 0.01 %ID/g
tissue uptake at 12 h [8]: 0.01 %ID/g
tissue uptake at 4 h (blood, 150 pmol, 150 pmol, read-out: uptake in blood): 0.09 ± 0.01 %ID/g
tissue uptake at 4 h [9]: 0.09 ± 0.01 %ID/g
tissue uptake at 12 h [9]: 0.05 ± 0.01 %ID/g
tissue uptake at 4 h (heart, 150 pmol, 150 pmol, read-out: uptake in heart): 0.15 ± 0.05 %ID/g
tissue uptake at 4 h [10]: 0.56 ± 0.1 %ID/g
tissue uptake at 12 h [10]: 0.19 ± 0.02 %ID/g
tissue uptake at 4 h [11]: 0.55 ± 0.08 %ID/g
tissue uptake at 4 h [12]: 5.53 ± 1.51 %ID/g
tissue uptake at 12 h [12]: 3.37 ± 0.17 %ID/g
tissue uptake at 4 h [13]: 7.88 ± 1.26 %ID/g
tissue uptake at 4 h [14]: 0.43 ± 0.08 %ID/g
tissue uptake at 12 h [14]: 0.27 ± 0.03 %ID/g
tissue uptake at 4 h [15]: 0.79 ± 0.19 %ID/g
tissue uptake at 4 h [16]: 0.17 ± 0.01 %ID/g
tissue uptake at 12 h [16]: 0.08 ± 0.01 %ID/g
tissue uptake at 4 h [17]: 0.25 ± 0.04 %ID/g
tissue uptake at 4 h [18]: 0.06 ± 0.03 %ID/g
tissue uptake at 12 h [18]: 0.02 %ID/g
tissue uptake at 4 h [19]: 0.1 ± 0.09 %ID/g
tissue uptake at 4 h [20]: 1.21 ± 0.49 %ID/g
tissue uptake at 12 h [20]: 0.82 ± 0.06 %ID/g
tissue uptake at 4 h [21]: 0.73 ± 0.55 %ID/g
tissue uptake at 4 h [22]: 0.16 ± 0.01 %ID/g
tissue uptake at 12 h [22]: 0.13 ± 0.01 %ID/g
tissue uptake at 4 h (spleen, 150 pmol, 150 pmol, read-out: uptake in spleen): 0.28 ± 0.08 %ID/g
tissue uptake at 4 h [23]: 4.68 ± 0.93 %ID/g
tissue uptake at 12 h [23]: 4.12 ± 0.82 %ID/g
tissue uptake at 4 h [24]: 1.02 ± 0.45 %ID/g
tissue to tissue ratio at 12 h [25]: 2000 ± 750
tissue to tissue ratio at 4 h [26]: 188 ± 80
tissue to tissue ratio at 12 h [27]: 7.41 ± 1.33
tissue to tissue ratio at 4 h [28]: 2.23 ± 0.87
tissue to tissue ratio at 12 h [29]: 131 ± 37
tissue to tissue ratio at 4 h [30]: 22.8 ± 10
tissue to tissue ratio at 12 h [31]: 6.15 ± 1.12
tissue to tissue ratio at 4 h [32]: 12.7 ± 4.9
SMILES: CCCC[C@@H](C(=O)N[C@@H](CC(=O)O)C(=O)N[C@@H](Cc1cccc2ccccc12)C(N)=O)N(C)C(=O)[C@H](Cc1c[nH]c2ccccc12)NC(=O)CNC(=O)[C@@H]1CCCN1C(=O)[C@H](Cc1ccc(O)cc1)NC(=O)[C@@H](CCC(=O)O)NC(=O)CN1CCN(CC(=O)O)CCN(CC(=O)O)CCN(CC(=O)O)CC1 [[^177Lu]Lu-2, metal not drawn] ({DOTA}-[dE]YPGW[NMeNle]D[1Nal]-NH2)
